Experimental data published in patent US11786532B2, “2-pyridones and methods of use thereof” (ALIGOS THERAPEUTICS, INC., priority 2020, dated 2023).

Biological target: T1, human thyroid receptor beta ligand-binding domain (THR-beta) (Homo sapiens, UniProt P10828)
T1 sequence (P10828 217-461 limits assumed): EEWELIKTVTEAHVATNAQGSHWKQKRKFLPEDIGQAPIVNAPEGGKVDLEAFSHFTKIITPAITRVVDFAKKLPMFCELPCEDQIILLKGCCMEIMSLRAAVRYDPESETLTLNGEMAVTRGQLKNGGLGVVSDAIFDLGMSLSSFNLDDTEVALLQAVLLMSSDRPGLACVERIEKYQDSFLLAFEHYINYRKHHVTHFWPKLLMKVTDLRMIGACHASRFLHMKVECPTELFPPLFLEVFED
Assay: THR Biochemical Assay (Assay 1): TR-FRET thyroid receptor beta coactivator assay
Conditions: TR-FRET SRC2-2 coactivator recruitment, GST-tagged THR-beta LBD 1 nM, 1 hr at rt; read-out: Assay 1 (EC50, THR-beta agonist activity)
Source text: THR Biochemical Assay (Assay 1)
The TR-FRET thyroid receptor beta coactivator assay is to be used. The assay uses a terbium-labeled anti-GST antibody, a glutathione-S-transferase (GST) tagged human thyroid receptor, beta or alpha, ligand-binding domain (LBD), and a fluorescein labeled SRC2-2 coactivator peptide. The antibody interacts with the LBD, where the agonist will also bind, resulting in increased affinity for the SRC2-2 coactivator peptide causing energy transfer of the acceptor fluorophore and a FRET emission shift from 495 to 520 nm. The energy transfer is detected as an increase in the fluorescence emission of the fluorescein acceptor, and a decrease in the fluorescence emission of the terbium donor. The assay is to be performed in a 384-well black plate in a final volume of 20 μL. Serial dilution of various test agonists will be performed in DMSO (1% final DMSO concentration) and added to the test plate. Thyroid receptor beta LBD will usually be added to the plate at a final concentration of 1 nM, followed by the mixture of the fluorescein labeled SRC2-2 coactivator peptide, and the terbium-labeled anti-GST antibody at final concentrations of 200 nM and 2 nM respectively. The assay will often be incubated for 1 hr at rt protected from light. The TR-FRET will then be measured on a Victor multilabel reader (Perkin Elmer) using an excitation wavelength of 340 nm with emission filters of 495 nm and 520 nm. The assay will be quantified by expressing a ratio (520:495) of the intensities, and the resulting activation curves; EC50 values are to be generated using a sigmoidal dose response (variable slope) equation in GraphPad™ Prism 8.0.

Nc1nn(-c2cc(Cl)c(Oc3ccc(=O)n(C4CC4)c3)c(Cl)c2)c(=O)[nH]c1=O [Example 31, 6-amino-2-(3,5-dichloro-4-((1-cyclopropyl-6-oxo-1,6-dihydropyridin-3-yl)oxy)phenyl)-1,2,4-triazine-3,5(2H,4H)-dione]
EC50: 50 to 250 nM

Cc1cc(-n2nc(N)c(=O)[nH]c2=O)cc(C)c1Oc1c[nH]c(=O)c(C(C)C)c1 [Compound 9, 6-amino-2-(4-((5-isopropyl-6-oxo-1,6-dihydropyridin-3-yl)oxy)-3,5-dimethylphenyl)-1,2,4-triazine-3,5(2H,4H)-dione]
EC50: 50 to 250 nM

Nc1nn(-c2cc(Cl)c(Oc3c[nH]c(=O)c(C(=O)NC4CC(F)(F)C4)c3)c(Cl)c2)c(=O)[nH]c1=O [Example 27, 5-(4-(6-Amino-3,5-dioxo-4,5-dihydro-1,2,4-triazin-2(3H)-yl)-2,6-dichlorophenoxy)-N-(3,3-difluorocyclobutyl)-2-oxo-1,2-dihydropyridine-3-carboxamide]
EC50: 250 to 1000 nM

CC(C)c1cc(Oc2c(Cl)cc(NC(=O)c3noc(=O)[nH]3)cc2Cl)c[nH]c1=O [Compound 5, N-(3,5-dichloro-4-((5-isopropyl-6-oxo-1,6-dihydropyridin-3-yl)oxy)phenyl)-5-oxo-4,5-dihydro-1,2,4-oxadiazole-3-carboxamide]
EC50: < 50 nM

CC1CCc2c(Oc3c(Cl)cc(-n4nc(N)c(=O)[nH]c4=O)cc3Cl)ccc(=O)n21 (single isomer, unassigned) [Example 37, 6-amino-2-(3,5-dichloro-4-((3-methyl-5-oxo-1,2,3,5-tetrahydroindolizin-8-yl)oxy)phenyl)-1,2,4-triazine-3,5(2H,4H)-dione]
EC50: < 50 nM

CC(n1cc(Oc2c(Cl)cc(-n3nc(N)c(=O)[nH]c3=O)cc2Cl)ccc1=O)C(F)(F)F (centres unmarked) [Example 32, 6-amino-2-(3,5-dichloro-4-((6-oxo-1-(1,1,1-trifluoropropan-2-yl)-1,6-dihydropyridin-3-yl)oxy)phenyl)-1,2,4-triazine-3,5(2H,4H)-dione]
EC50: 50 to 250 nM

CC(C)n1cc(Oc2c(Cl)cc(NC(=O)c3noc(=O)[nH]3)cc2Cl)ccc1=O [Compound 6, N-(3,5-dichloro-4-((1-isopropyl-6-oxo-1,6-dihydropyridin-3-yl)oxy)phenyl)-5-oxo-4,5-dihydro-1,2,4-oxadiazole-3-carboxamide]
EC50: 50 to 250 nM

CC(C)n1cc(Oc2c(Cl)cc(-n3nc(C#N)c(=O)[nH]c3=O)cc2Cl)ccc1=O [Compound 7, 2-(3,5-dichloro-4-((1-isopropyl-6-oxo-1,6-dihydropyridin-3-yl)oxy)phenyl)-3,5-dioxo-2,3,4,5-tetrahydro-1,2,4-triazine-6-carbonitrile]
EC50: < 50 nM

CC(C)n1cc(Oc2c(Cl)cc(-n3nc(N)c(=O)[nH]c3=O)cc2Cl)ccc1=O [Compound 8, 6-amino-2-(3,5-dichloro-4-((1-isopropyl-6-oxo-1,6-dihydropyridin-3-yl)oxy)phenyl)-1,2,4-triazine-3,5(2H,4H)-dione]
EC50: 50 to 250 nM

CNC(=O)c1cc(Oc2c(Cl)cc(NC(=O)c3noc(=O)[nH]3)cc2Cl)c[nH]c1=O [Example 28, N-(3,5-dichloro-4-((5-(methylcarbamoyl)-6-oxo-1,6-dihydropyridin-3-yl)oxy)phenyl)-5-oxo-4,5-dihydro-1,2,4-oxadiazole-3-carboxamide]
EC50: 1000 to 25000 nM

CC1CCc2c(Oc3c(Cl)cc(-n4nc(C#N)c(=O)[nH]c4=O)cc3Cl)c[nH]c(=O)c21 (centres unmarked) [Example 34, 2-(3,5-Dichloro-4-((7-methyl-1-oxo-2,5,6,7-tetrahydro-1H-cyclopenta[c]pyridin-4-yl)oxy)phenyl)-3,5-dioxo-2,3,4,5-tetrahydro-1,2,4-triazine-6-carbonitrile]
EC50: 250 to 1000 nM

Cc1c(Oc2c(Cl)cc(-n3nc(N)c(=O)[nH]c3=O)cc2Cl)c[nH]c(=O)c1C(C)C [Example 18, 6-amino-2-(3,5-dichloro-4-((5-isopropyl-4-methyl-6-oxo-1,6-dihydropyridin-3-yl)oxy)phenyl)-1,2,4-triazine-3,5(2H,4H)-dione]
EC50: < 50 nM

CC(C)n1cc(Oc2c(Cl)cc(-n3nc(N)c(=O)[nH]c3=O)cc2Cl)cc(Cl)c1=O [Example 23, 6-amino-2-(3,5-dichloro-4-((5-chloro-1-isopropyl-6-oxo-1,6-dihydropyridin-3-yl)oxy)phenyl)-1,2,4-triazine-3,5(2H,4H)-dione]
EC50: 50 to 250 nM

CN(C)c1cc(Oc2c(Cl)cc(-n3nc(N)c(=O)[nH]c3=O)cc2Cl)c[nH]c1=O [Compound 13, 6-amino-2-(3,5-dichloro-4-((5-(dimethylamino)-6-oxo-1,6-dihydropyridin-3-yl)oxy)phenyl)-1,2,4-triazine-3,5(2H,4H)-dione]
EC50: 250 to 1000 nM

CC(C)n1cc(Oc2c(Cl)cc(-n3nc(N)c(=O)[nH]c3=O)cc2Cl)cc(F)c1=O [Example 22, 6-amino-2-(3,5-dichloro-4-((5-fluoro-1-isopropyl-6-oxo-1,6-dihydropyridin-3-yl)oxy)phenyl)-1,2,4-triazine-3,5(2H,4H)-dione]
EC50: 50 to 250 nM

CC1CCc2c(Oc3c(Cl)cc(-n4nc(N)c(=O)[nH]c4=O)cc3Cl)ccc(=O)n21 (centres unmarked) [Example 36, 6-amino-2-(3,5-dichloro-4-((3-methyl-5-oxo-1,2,3,5-tetrahydroindolizin-8-yl)oxy)phenyl)-1,2,4-triazine-3,5(2H,4H)-dione]
EC50: < 50 nM

Cc1cc(-n2nc(N)c(=O)[nH]c2=O)cc(C)c1Cc1c[nH]c(=O)c(C(C)C)c1 [Example 33, 6-amino-2-(4-((5-isopropyl-6-oxo-1,6-dihydropyridin-3-yl)methyl)-3,5-dimethylphenyl)-1,2,4-triazine-3,5(2H,4H)-dione]
EC50: 250 to 1000 nM

Nc1nn(-c2cc(Cl)c(Oc3c[nH]c(=O)c(C4CCC4)c3)c(Cl)c2)c(=O)[nH]c1=O [Example 24, 6-amino-2-(3,5-dichloro-4-((5-cyclobutyl-6-oxo-1,6-dihydropyridin-3-yl)oxy)phenyl)-1,2,4-triazine-3,5(2H,4H)-dione]
EC50: < 50 nM

CC(C)c1cc(Oc2c(Cl)cc(-n3nc(N)c(=O)[nH]c3=O)cc2Cl)cn(C)c1=O [Example 14, 6-amino-2-(3,5-dichloro-4-((5-isopropyl-1-methyl-6-oxo-1,6-dihydropyridin-3-yl)oxy)phenyl)-1,2,4-triazine-3,5(2H,4H)-dione]
EC50: < 50 nM

Nc1nn(-c2cc(Cl)c(Oc3ccc(=O)n(C4CCC4)c3)c(Cl)c2)c(=O)[nH]c1=O [Example 30, 6-amino-2-(3,5-dichloro-4-((1-cyclobutyl-6-oxo-1,6-dihydropyridin-3-yl)oxy)phenyl)-1,2,4-triazine-3,5(2H,4H)-dione]
EC50: < 50 nM

CC(C)c1cc(Oc2c(Cl)cc(-n3nc(N)c(=O)[nH]c3=O)cc2Cl)c[nH]c1=O [Compound 1, 6-amino-2-(3,5-dichloro-4-((5-isopropyl-6-oxo-1,6-dihydropyridin-3-yl)oxy)phenyl)-1,2,4-triazine-3,5(2H,4H)-dione]
EC50: < 50 nM

Cc1cc(Oc2c(Cl)cc(-n3nc(N)c(=O)[nH]c3=O)cc2Cl)cn(C(C)C)c1=O [Example 19, 6-amino-2-(3,5-dichloro-4-((1-isopropyl-5-methyl-6-oxo-1,6-dihydropyridin-3-yl)oxy)phenyl)-1,2,4-triazine-3,5(2H,4H)-dione]
EC50: < 50 nM

CC1CCc2c(Oc3c(Cl)cc(-n4nc(N)c(=O)[nH]c4=O)cc3Cl)c[nH]c(=O)c21 (centres unmarked) [Example 15, 6-amino-2-[3,5-dichloro-4-[(7-methyl-1-oxo-2,5,6,7-tetrahydrocyclopenta[c]pyridin-4-yl)oxy]phenyl]-1,2,4-triazine-3,5-dione]
EC50: 250 to 1000 nM
